Results published in US7541368B2, “Pyrazoles as inhibitors of tumor necrosis factor” (Aventis Pharmaceuticals Inc., priority 2003, dated 2009).

How the values were obtained:
[1] = molecular target: T1, Inactive N-terminal His6 tagged murine P38 (Mus musculus, UniProt P47811); assay: p38 cascade assay (HTRF; inactive p38 activated by MKK-6, ATF-2 phosphorylation); assay type: biochemical; details: inactive p38 preincubated with compound, then MKK-6, ATF-2, ATP; read-out: 50% inhibition in the p38 cascade assay at concentrations within the range
T1 construct: His6 (N); made in house
Description: The homogeneous time resolved fluorescence method (HTRF) assay measured the phosphorylation of human activating transcription factor (ATF)-2 protein by P38 following activation by MKK-6 and was run in A384 well plate format. […] MBP-tagged mouse MKK-6 (final concentration 50 nM), GST-tagged ATF-2 (fmal concentration 200 nM) and ATP (final concentration 50 μM) were then added and the incubation continued for 90 min. p38, MKK-6 and ATF-2 were prepared in the Protein Production Group, Aventis Pharmaceuticals. XL665 labeled anti-GST antibody (Cis Bio International) and cryptate labeled anti-pbospho-ATF2 antibody (Cis Bio International) were then added to generate the specific signal proportional to the phosphorylation of the substrate. The close proximity of XL665 labeled anti-GST antibody/phosphorylated GST-ATF2 complex and the cryptate labeled anti-phospho-ATF2 antibody results in a fluorescence transfer from cryptate to XL665. The resulting fluorescence signal was than read on a LJL Acquest set at multi-method mode using a fluorescence filter set (E=360 nm, Em=615/665 nm) with UV dichroic mirror (Integration time: 300000 μs). The results are reported as IC50 values. Compounds were tested over the concentration range of 3×10^−10M to 3×10^−5M.

[2] = test system: TNF-alpha release in THP-1 cells; assay: LPS-induced TNF-alpha release in THP-1 cells; assay type: cell-based; details: Homo sapiens, THP-1, LPS-stimulated THP-1 cells; read-out: 50% inhibition in the LPS-induced TNF-alpha release in THP-1 cells assay at concentrations within the range
Method in brief: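 TNF-alpha in supernatants was quantified by sandwich ELISA against a log/log recombinant standard curve (0.125-16 ng/ml). Before this, THP-1 cells (1×10^6 cells/ml, serum-reduced) received compound at 1×10^−9 to 1×10^−6 M in 0.3% DMSO for 1 h, then LPS 20 μg/ml for 18 h.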

T1 sequence (P47811 whole entry): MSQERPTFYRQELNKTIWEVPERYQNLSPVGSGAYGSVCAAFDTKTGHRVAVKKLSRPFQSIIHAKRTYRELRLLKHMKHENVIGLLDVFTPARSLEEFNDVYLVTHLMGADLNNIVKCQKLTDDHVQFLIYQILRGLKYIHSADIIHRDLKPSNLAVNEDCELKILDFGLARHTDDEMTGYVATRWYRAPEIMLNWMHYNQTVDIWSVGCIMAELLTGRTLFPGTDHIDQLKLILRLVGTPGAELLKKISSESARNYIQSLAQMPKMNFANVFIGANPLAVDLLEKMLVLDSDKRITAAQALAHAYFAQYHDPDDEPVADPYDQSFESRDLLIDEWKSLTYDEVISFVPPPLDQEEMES

| Structure (SMILES) | IC50 [1] [µM] | IC50 [2] [µM] |
| --- | --- | --- |
| Cc1ccc(-n2nc(C(C)(C)C)cc2NC(=O)Nc2cccc(CC3CCN(C(=O)c4ccncc4)CC3)c2)cc1 [Compound A170, 1-(5-tert-Butyl-2-p-tolyl-2H-pyrazol-3-yl)-3-{3-[1-(pyridine-4-carbonyl)-piperidin-4-ylmethyl]-phenyl}-urea] | 0.01 to 0.1 | 0.01 to 0.5 |
| Cc1ccc(-n2nc(C(C)(C)C)cc2NC(=O)Nc2ccc(CC3CCN(C(=O)c4cnc(O)c(Cl)c4)CC3)cc2)cc1 [Compound A326, 1-(5-tert-Butyl-2-p-tolyl-2H-pyrazol-3-yl)-3-{4-[1-(5-chloro-6-hydroxy-pyridine-3-carbonyl)-piperidin-4-ylmethyl]-phenyl}-urea] | 0.01 to 0.1 | 0.01 to 0.5 |
| Cc1ccc(-n2nc(C(C)(C)C)cc2NC(=O)Nc2ccc(CC3CCN(C(=O)c4ccc5[nH]ccc5c4)CC3)cc2)cc1 [Compound A361, 1-(5-tert-Butyl-2-p-tolyl-2H-pyrazol-3-yl)-3-{4-[1-(1H-indole-5-carbonyl)-piperidin-4-ylmethyl]-phenyl}-urea] | 0.01 to 0.1 | 0.01 to 0.5 |
| Cc1ccc(-n2nc(C(C)(C)C)cc2NC(=O)Nc2ccc(CC3CCN(C(=O)Cc4ccc(F)cc4F)CC3)cc2)cc1 [Compound A217, 1-(5-tert-Butyl-2-p-tolyl-2H-pyrazol-3-yl)-3-(4-{1-[2-(2,4-difluoro-phenyl)-acetyl]-piperidin-4-ylmethyl}-phenyl)-urea] | 0.01 to 0.1 | 0.01 to 0.5 |
| Cc1ccc(-n2nc(C(C)(C)C)cc2NC(=O)Nc2ccc(CC3CCN(C(=O)c4occc4C)CC3)cc2)cc1 [Compound A289, 1-(5-tert-Butyl-2-p-tolyl-2H-pyrazol-3-yl)-3-{4-[1-(3-methyl-furan-2-carbonyl)-piperidin-4-ylmethyl]-phenyl}-urea] | 0.01 to 0.1 | 0.01 to 0.5 |
| Cc1ccc(-n2nc(C(C)(C)C)cc2NC(=O)Nc2cccc(CC3CCN(C(=O)C4(C)CC4)CC3)c2)cc1 [Compound A16, 1-(5-tert-Butyl-2-p-tolyl-2H-pyrazol-3-yl)-3-{3-[1-(1-methyl-cyclopropanecarbonyl)-piperidin-4-ylmethyl]-phenyl}-urea] | 0.01 to 0.1 | 0.01 to 0.5 |
| COc1ccc(OC)c(C(=O)N2CCC(Cc3ccc(NC(=O)Nc4cc(C(C)(C)C)nn4-c4ccc(C)cc4)cc3)CC2)c1 [Compound A220, 1-(5-tert-Butyl-2-p-tolyl-2H-pyrazol-3-yl)-3-{4-[1-(2,5-dimethoxy-benzoyl)-piperidin-4-ylmethyl]-phenyl}-urea] | 0.01 to 0.1 | 0.01 to 0.5 |
| COc1cscc1C(=O)N1CCC(Cc2cccc(NC(=O)Nc3cc(C(C)(C)C)nn3-c3ccc(C)cc3)c2)CC1 [Compound A123, 1-(5-tert-Butyl-2-p-tolyl-2H-pyrazol-3-yl)-3-{3-[1-(4-methoxy-thiophene-3-carbonyl)-piperidin-4-ylmethyl]-phenyl}-urea] | 0.01 to 0.1 | 0.01 to 0.5 |
| CC(=O)NCC(=O)N1CCC(Cc2ccc(NC(=O)Nc3cc(C(C)(C)C)nn3-c3ccc(C)cc3)cc2)CC1 [Compound A375, N-[2-(4-{4-[3-(5-tert-Butyl-2-p-tolyl-2H-pyrazol-3-yl)-ureido]-benzyl}-piperidin-1-yl)-2-oxo-ethyl]-acetamide] | 0.01 to 0.1 | 0.01 to 0.5 |
| COCC(=O)N1CCC(Cc2ccc(NC(=O)Nc3cc(C(C)(C)C)nn3-c3ccc(C)cc3)cc2)CC1 [Compound A367, 1-(5-tert-Butyl-2-p-tolyl-2H-pyrazol-3-yl)-3-{4-[1-(2-methoxy-acetyl)-piperidin-4-ylmethyl]-phenyl}-urea] | 0.01 to 0.1 | 0.01 to 0.5 |
| Cc1ccc(-n2nc(C(C)(C)C)cc2NC(=O)Nc2ccc(CC3CCN(C(=O)c4ccc5ncccc5c4)CC3)cc2)cc1 [Compound A386, 1-(5-tert-Butyl-2-p-tolyl-2H-pyrazol-3-yl)-3-{4-[1-(quinoline-6-carbonyl)-piperidin-4-ylmethyl]-phenyl}-urea] | 0.01 to 0.1 | 0.01 to 0.5 |
| Cc1ccc(-n2nc(C(C)(C)C)cc2NC(=O)Nc2ccc(CC3CCN(C(=O)CCOc4ccccc4)CC3)cc2)cc1 [Compound A292, 1-(5-tert-Butyl-2-p-tolyl-2H-pyrazol-3-yl)-3-{4-[1-(3-phenoxy-propionyl)-piperidin-4-ylmethyl]-phenyl}-urea] | 0.01 to 0.1 | 0.01 to 0.5 |

Other lines, results leading:

| IC50 [1] [µM] | IC50 [2] [µM] | Structure (SMILES) |
| --- | --- | --- |
| 0.01 to 0.1 | 0.01 to 0.5 | Cc1ccc(-n2nc(C(C)(C)C)cc2NC(=O)Nc2cccc(CC3CCN(C(=O)CNC(=O)c4ccccc4)CC3)c2)cc1 [Compound A163, N-[2-(4-{3-[3-(5-tert-butyl-2-p-tolyl-2H-pyrazol-3-yl)-ureido]-benzyl}-piperidin-1-yl)-2-oxo-ethyl]-benzamide] |
| 0.01 to 0.1 | 0.01 to 0.5 | Cc1ccc(-n2nc(C(C)(C)C)cc2NC(=O)Nc2ccc(CC3CCN(C(=O)OCc4ccccc4)CC3)cc2)cc1 [Compound A1610, 4-{4-[3-(5-tert-Butyl-2-p-tolyl-2H-pyrazol-3-yl)-ureido]-benzyl}-piperidine-1-carboxylic acid benzyl ester] |
| 0.01 to 0.1 | 0.01 to 0.5 | Cc1ccc(-n2nc(C(C)(C)C)cc2NC(=O)Nc2ccc(CC3CCN(C(=O)CNC(=O)c4ccccc4)CC3)cc2)cc1 [Compound A352, N-[2-(4-{4-[3-(5-tert-Butyl-2-p-tolyl-2H-pyrazol-3-yl)-ureido]-benzyl}-piperidin-1-yl)-2-oxo-ethyl]-benzamide] |
| 0.01 to 0.1 | 0.01 to 0.5 | Cc1ccc(-n2nc(C(C)(C)C)cc2NC(=O)Nc2cccc(CC3CCN(C(=O)c4cccnc4C)CC3)c2)cc1 [Compound A59, 1-(5-tert-Butyl-2-p-tolyl-2H-pyrazol-3-yl)-3-{3-[1-(2-methyl-pyridine-3-carbonyl)-piperidin-4-ylmethyl]-phenyl}-urea] |
| 0.01 to 0.1 | 0.01 to 0.5 | Cc1ccc(-n2nc(C(C)(C)C)cc2NC(=O)Nc2cccc(CC3CCN(C(=O)c4cccnc4Cl)CC3)c2)cc1 [Compound A42, 1-(5-tert-Butyl-2-p-tolyl-2H-pyrazol-3-yl)-3-{3-[1-(2-chloro-pyridine-3-carbonyl)-piperidin-4-ylmethyl]-phenyl}-urea] |
| 0.01 to 0.1 | 0.01 to 0.5 | Cc1ccc(-n2nc(C(C)(C)C)cc2NC(=O)Nc2ccc(CC3CCN(C(=O)c4ccncc4)CC3)cc2)cc1 [Compound A364, 1-(5-tert-Butyl-2-p-tolyl-2H-pyrazol-3-yl)-3-{4-[1-(pyridine-4-carbonyl)-piperidin-4-ylmethyl]-phenyl}-urea] |
| 0.01 to 0.1 | 0.01 to 0.5 | Cc1ccc(-n2nc(C(C)(C)C)cc2NC(=O)Nc2cccc(CC3CCN(C(=O)c4sc(C)nc4C)CC3)c2)cc1 [Compound A28, 1-(5-tert-Butyl-2-p-tolyl-2H-pyrazol-3-yl)-3-{3-[1-(2,4-dimethyl-thiazole-5-carbonyl)-piperidin-4-ylmethyl]-phenyl}-urea] |
| 0.01 to 0.1 | 0.01 to 0.5 | Cc1ccc(-n2nc(C(C)(C)C)cc2NC(=O)Nc2cccc(CC3CCN(C(=O)c4csc(-c5cccnc5)n4)CC3)c2)cc1 [Compound A32, 1-(5-tert-Butyl-2-p-tolyl-2H-pyrazol-3-yl)-3-{3-[1-(2-pyridin-3-yl-thiazole-4-carbonyl)-piperidin-4-ylmethyl]-phenyl}-urea] |
